Source: ChEMBL document CHEMBL4602617, “Discovery and optimization of heteroaryl piperazines as potent and selective PI3Kδ inhibitors” (Bioorg Med Chem Lett, 2020)

Columns and labels:
[1] = biological target: Cytoplasmic tyrosine-protein kinase BMX (Homo sapiens, UniProt P51813); test: Inhibition of recombinant full length human His-tagged BMX cytoplasmic domain expressed in baculovirus expression system using tyrosine-1 peptide as substrate incubated for 60 mins in presence of ATP by Z'-LYTE assay
[2] = biological target: Tyrosine-protein kinase ABL1 (Homo sapiens, UniProt P00519, T315I); test: Inhibition of recombinant full length human His-tagged ABL1 T315I mutant cytoplasmic domain expressed in baculovirus expression system using tyrosine-2 peptide as substrate incubated for 60 mins in presence of ATP by Z'-LYTE assay
[3] = biological target: Mitogen-activated protein kinase 10 (Homo sapiens, UniProt P53779); test: Inhibition of recombinant full length N-terminal GST-tagged human JNK3 expressed in baculovirus expression system using Ser/Thr-04 peptide as substrate after 1 hr in presence of ATP by Z'LYTE assay
[4] = biological target: Vasopressin V2 receptor (Homo sapiens) (UniProt P30518); test: Displacement of [3H]-(Arg8)-Vasopressin from recombinant full length human V2 receptor expressed in CHO-K1 cells at 10 uM after 120 mins by radiometric scintillation analysis relative to control; format: cell-based
[5] = biological target: 5-hydroxytryptamine receptor 2B (Homo sapiens) (UniProt P41595); test: Displacement of [3H]lysergic acid diethylamide from full length human recombinant 5HT2B receptor expressed in CHOK-1 cells at 10 uM measured after 60 mins by radiometric scintillation analysis relative to control; format: cell-based
[6] = organism: Rattus norvegicus; test: Inhibition of rat P2Y receptor at 10 uM relative to control
[7] = biological target: Corticotropin-releasing factor receptor 1 (Homo sapiens) (UniProt P34998); test: Displacement of [125I](Tyr0)-CRF from recombinant full length human recombinant CRF1 expressed in CHO-K1 cells at 10 uM measured after 60 mins by radiometric scintillation analysis relative to control; format: cell-based
[8] = biological target: Adenosine receptor A2a (Homo sapiens) (UniProt P29274); test: Displacement of [3H]CGS-21680 from full-length recombinant human A2A receptor expressed in HEK293 cells at 10 uM measured after 90 mins by scintillation counting method relative to control; format: cell-based
[9] = biological target: Mitogen-activated protein kinase 14 (Homo sapiens, UniProt Q16539); test: Inhibition of recombinant full length human p38alpha expressed in Escherichia coli at 10 uM using MBP as substrate after 30 mins by radiometric scintillation analysis relative to control
[10] = biological target: CDK9/cyclin T1 (Homo sapiens, UniProt P50750); test: Inhibition of recombinant full length human His-tagged CDK9/CyclinT1 expressed in baculovirus expression system using CDK7/9tide peptide as substrate incubated for 60 mins in presence of ATP by Adapta assay
[11] = biological target: Casein kinase I isoform gamma-1 (Homo sapiens, UniProt Q9HCP0); test: Inhibition of recombinant human full-length GST-tagged CSNK1G1 expressed in baculovirus expression system using FRET-labeled Ser/Thr 05 peptide as substrate measured after 1 hr in presence of ATP by Z'-lyte assay
[12] = biological target: Eukaryotic elongation factor 2 kinase (Homo sapiens, UniProt O00418); test: Inhibition of recombinant human full length GST-tagged EEF2K expressed in Escherichia coli expression system using serine/threonine-24 peptide as substrate incubated for 60 mins in presence of ATP by Z'-LYTE assay
[13] = biological target: Rhodopsin kinase GRK7 (Homo sapiens, UniProt Q8WTQ7); test: Inhibition of recombinant full length human GST-tagged GRK7 expressed in baculovirus expression system using serine/threonine-16 peptide as substrate incubated for 60 mins in presence of ATP by Z'-LYTE assay
[14] = biological target: Tyrosine-protein kinase JAK2 (Homo sapiens, UniProt O60674); test: Inhibition of human recombinant N-terminal GST tagged JAK2 JH1 catalytic domain (532 to 1132 residues) expressed in baculovirus expression system using Tyr6 peptide as measured after 1 hr in presence of ATP by Z'-LYTE assay
[15] = biological target: Mitogen-activated protein kinase 8 (Homo sapiens, UniProt P45983); test: Inhibition of recombinant full length human His-tagged JNK1alpha1 expressed in baculovirus expression system using serine/threonine-4 peptide as substrate incubated for 60 mins in presence of ATP by Z'-LYTE assay
[16] = biological target: Serine/threonine-protein kinase Nek6 (Homo sapiens, UniProt Q9HC98); test: Inhibition of recombinant full length human GST-tagged NEK6 expressed in insect expression system using serine/threonine-22 peptide as substrate incubated for 60 mins in presence of ATP by Z'-LYTE assay
[17] = biological target: Serine/threonine-protein kinase PAK 4 (Homo sapiens, UniProt O96013); test: Inhibition of recombinant human GST-tagged PAK4 catalytic domain (295 to 591 residues) expressed in baculovirus expression system using serine/threonine-20 peptide as substrate incubated for 60 mins in presence of ATP by Z'-LYTE assay
[18] = biological target: PAS domain-containing serine/threonine-protein kinase (Homo sapiens, UniProt Q96RG2); test: Inhibition of recombinant human GST-tagged PASK catalytic domain expressed in baculovirus expression system using serine/threonine-7 peptide as substrate incubated for 60 mins in presence of ATP by Z'-LYTE assay
[19] = biological target: Phosphatidylinositol 3-kinase catalytic subunit type 3 (Homo sapiens, UniProt Q8NEB9); test: Inhibition of recombinant full length human GST-tagged PIK3C3 expressed in baculovirus expression system using PI lipid as substrate incubated for 60 mins in presence of ATP by Adapta assay
[20] = biological target: Serine/threonine-protein kinase N1 (Homo sapiens, UniProt Q16512); test: Inhibition of recombinant full length GST-tagged human PKN1 expressed in baculovirus expression system using Ser/Thr 07 as substrate in presence of ATP after 1 hr by Z'-LYTE assay
[21] = biological target: Protein kinase C beta type (Homo sapiens, UniProt P05771); test: Inhibition of recombinant full length human GST-tagged PKCbeta1 expressed in insect expression system using serine/threonine-7 peptide as substrate incubated for 60 mins in presence of ATP by Z'-LYTE assay
[22] = biological target: Protein kinase C theta type (Homo sapiens, UniProt Q04759); test: Inhibition of recombinant full length human His-tagged PKCtheta expressed in baculovirus expression system using serine/threonine-7 peptide as substrate incubated for 60 mins in presence of ATP by Z'-LYTE assay
[23] = biological target: Serine/threonine-protein kinase Sgk2 (Homo sapiens, UniProt Q9HBY8); test: Inhibition of recombinant human GST-tagged SGK2 catalytic domain (54 to 427 residues) expressed in baculovirus expression system using serine/threonine-6 peptide as substrate incubated for 60 mins in presence of ATP by Z'-LYTE assay
[24] = biological target: Serine/threonine-protein kinase 24 (Homo sapiens, UniProt Q9Y6E0); test: Inhibition of recombinant full length human GST-tagged MST3 expressed in baculovirus expression system using serine/threonine-7 peptide as substrate incubated for 60 mins in presence of ATP by Z'-LYTE assay
[25] = biological target: Tyrosine-protein kinase ZAP-70 (Homo sapiens, UniProt P43403); test: Inhibition of recombinant full length human His-tagged ZAP70 cytoplasmic domain expressed in baculovirus expression system using fluorophore-labeled tyrosine-07 peptide as substrate incubated for 60 mins in presence of ATP by Z'-LYTE assay
Chain of Tyrosine-protein kinase ZAP-70 (P43403 whole entry, the tested form may be a part): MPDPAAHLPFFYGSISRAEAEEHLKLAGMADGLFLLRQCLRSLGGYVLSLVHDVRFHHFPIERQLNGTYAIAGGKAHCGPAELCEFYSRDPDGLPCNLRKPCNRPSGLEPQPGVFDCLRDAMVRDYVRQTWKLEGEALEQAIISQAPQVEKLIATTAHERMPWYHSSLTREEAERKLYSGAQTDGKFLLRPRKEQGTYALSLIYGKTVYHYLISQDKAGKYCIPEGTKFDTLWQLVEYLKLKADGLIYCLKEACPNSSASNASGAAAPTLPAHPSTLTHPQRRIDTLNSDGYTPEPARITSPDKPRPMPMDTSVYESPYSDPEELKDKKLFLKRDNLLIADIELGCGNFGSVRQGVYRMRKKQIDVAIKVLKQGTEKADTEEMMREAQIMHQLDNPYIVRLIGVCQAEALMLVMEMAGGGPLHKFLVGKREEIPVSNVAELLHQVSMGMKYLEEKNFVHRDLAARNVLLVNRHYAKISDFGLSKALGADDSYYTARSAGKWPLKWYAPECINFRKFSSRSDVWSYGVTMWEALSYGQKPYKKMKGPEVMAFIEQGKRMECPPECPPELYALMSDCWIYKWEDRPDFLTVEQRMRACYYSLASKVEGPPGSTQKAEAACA

Chain of Cytoplasmic tyrosine-protein kinase BMX (P51813 whole entry, the tested form may be a part): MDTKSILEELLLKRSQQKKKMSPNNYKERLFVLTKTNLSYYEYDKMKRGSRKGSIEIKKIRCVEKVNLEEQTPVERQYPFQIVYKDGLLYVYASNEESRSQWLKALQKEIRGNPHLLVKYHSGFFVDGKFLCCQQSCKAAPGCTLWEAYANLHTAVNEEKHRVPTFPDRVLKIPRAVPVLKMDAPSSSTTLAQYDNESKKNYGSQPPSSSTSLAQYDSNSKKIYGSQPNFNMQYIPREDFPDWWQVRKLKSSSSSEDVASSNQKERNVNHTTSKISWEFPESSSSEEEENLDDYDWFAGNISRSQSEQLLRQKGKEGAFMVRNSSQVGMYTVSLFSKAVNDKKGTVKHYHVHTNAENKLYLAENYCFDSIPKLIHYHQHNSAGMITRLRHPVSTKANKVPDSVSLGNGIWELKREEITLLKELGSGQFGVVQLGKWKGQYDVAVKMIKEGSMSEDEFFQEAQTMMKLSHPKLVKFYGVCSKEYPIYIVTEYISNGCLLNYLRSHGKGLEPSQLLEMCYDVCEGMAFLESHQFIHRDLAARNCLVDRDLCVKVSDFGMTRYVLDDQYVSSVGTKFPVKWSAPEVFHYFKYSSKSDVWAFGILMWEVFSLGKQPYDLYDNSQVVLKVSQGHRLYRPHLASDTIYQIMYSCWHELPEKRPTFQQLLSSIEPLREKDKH
Chain of Adenosine receptor A2a (Homo sapiens) (P29274 whole entry): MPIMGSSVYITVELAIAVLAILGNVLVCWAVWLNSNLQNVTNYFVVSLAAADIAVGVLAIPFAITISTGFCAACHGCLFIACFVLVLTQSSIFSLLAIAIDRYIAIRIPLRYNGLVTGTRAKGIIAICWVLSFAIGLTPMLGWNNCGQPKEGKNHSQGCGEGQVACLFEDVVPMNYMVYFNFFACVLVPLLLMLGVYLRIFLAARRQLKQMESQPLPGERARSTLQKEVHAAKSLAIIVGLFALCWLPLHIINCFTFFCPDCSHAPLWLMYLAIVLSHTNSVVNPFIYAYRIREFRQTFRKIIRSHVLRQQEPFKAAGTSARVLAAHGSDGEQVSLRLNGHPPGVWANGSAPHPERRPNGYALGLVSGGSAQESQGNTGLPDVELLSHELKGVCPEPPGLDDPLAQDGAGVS
Chain of Protein kinase C beta type (P05771 whole entry): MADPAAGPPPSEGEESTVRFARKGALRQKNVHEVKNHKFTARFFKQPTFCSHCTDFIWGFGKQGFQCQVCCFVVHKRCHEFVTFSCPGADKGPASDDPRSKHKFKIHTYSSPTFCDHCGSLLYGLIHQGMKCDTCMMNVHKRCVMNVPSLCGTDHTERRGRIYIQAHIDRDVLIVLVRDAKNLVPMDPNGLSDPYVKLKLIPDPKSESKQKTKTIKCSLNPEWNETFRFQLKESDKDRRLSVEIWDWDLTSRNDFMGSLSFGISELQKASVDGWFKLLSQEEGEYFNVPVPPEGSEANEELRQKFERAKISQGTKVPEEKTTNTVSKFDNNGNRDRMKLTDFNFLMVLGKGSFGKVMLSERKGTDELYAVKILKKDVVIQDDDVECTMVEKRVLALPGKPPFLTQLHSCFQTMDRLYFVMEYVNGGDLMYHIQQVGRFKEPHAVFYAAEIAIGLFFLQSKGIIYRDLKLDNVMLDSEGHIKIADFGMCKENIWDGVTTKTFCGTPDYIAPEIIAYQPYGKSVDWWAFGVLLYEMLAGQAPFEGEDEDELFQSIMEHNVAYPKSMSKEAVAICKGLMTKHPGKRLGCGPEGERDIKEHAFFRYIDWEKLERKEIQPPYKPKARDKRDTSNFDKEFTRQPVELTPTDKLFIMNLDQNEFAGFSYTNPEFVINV
Chain of Phosphatidylinositol 3-kinase catalytic subunit type 3 (Q8NEB9 whole entry): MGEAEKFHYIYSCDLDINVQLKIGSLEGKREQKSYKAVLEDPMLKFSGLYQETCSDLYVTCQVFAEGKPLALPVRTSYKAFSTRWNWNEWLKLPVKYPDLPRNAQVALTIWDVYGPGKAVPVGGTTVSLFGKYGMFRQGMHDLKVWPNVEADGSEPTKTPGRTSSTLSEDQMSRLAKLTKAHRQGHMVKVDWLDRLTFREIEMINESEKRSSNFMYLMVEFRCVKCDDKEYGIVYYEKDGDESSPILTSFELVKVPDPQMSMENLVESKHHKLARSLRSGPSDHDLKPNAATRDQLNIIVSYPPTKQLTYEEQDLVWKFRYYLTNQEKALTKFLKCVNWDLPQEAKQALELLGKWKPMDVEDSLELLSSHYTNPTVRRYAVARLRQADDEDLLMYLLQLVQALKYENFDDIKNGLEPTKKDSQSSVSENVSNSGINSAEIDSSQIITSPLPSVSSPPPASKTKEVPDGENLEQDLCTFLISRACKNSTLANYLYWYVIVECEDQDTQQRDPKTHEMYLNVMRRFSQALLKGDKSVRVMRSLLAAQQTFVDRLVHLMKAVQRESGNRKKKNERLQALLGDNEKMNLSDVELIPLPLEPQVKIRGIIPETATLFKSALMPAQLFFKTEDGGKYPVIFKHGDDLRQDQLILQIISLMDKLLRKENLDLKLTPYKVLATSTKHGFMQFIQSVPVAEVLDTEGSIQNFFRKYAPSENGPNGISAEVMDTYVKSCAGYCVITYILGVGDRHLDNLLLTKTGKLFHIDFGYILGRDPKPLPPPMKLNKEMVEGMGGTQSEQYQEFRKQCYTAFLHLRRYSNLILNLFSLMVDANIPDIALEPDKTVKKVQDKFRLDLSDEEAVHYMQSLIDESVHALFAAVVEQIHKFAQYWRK
Chain of PAS domain-containing serine/threonine-protein kinase (Q96RG2 whole entry, the tested form may be a part): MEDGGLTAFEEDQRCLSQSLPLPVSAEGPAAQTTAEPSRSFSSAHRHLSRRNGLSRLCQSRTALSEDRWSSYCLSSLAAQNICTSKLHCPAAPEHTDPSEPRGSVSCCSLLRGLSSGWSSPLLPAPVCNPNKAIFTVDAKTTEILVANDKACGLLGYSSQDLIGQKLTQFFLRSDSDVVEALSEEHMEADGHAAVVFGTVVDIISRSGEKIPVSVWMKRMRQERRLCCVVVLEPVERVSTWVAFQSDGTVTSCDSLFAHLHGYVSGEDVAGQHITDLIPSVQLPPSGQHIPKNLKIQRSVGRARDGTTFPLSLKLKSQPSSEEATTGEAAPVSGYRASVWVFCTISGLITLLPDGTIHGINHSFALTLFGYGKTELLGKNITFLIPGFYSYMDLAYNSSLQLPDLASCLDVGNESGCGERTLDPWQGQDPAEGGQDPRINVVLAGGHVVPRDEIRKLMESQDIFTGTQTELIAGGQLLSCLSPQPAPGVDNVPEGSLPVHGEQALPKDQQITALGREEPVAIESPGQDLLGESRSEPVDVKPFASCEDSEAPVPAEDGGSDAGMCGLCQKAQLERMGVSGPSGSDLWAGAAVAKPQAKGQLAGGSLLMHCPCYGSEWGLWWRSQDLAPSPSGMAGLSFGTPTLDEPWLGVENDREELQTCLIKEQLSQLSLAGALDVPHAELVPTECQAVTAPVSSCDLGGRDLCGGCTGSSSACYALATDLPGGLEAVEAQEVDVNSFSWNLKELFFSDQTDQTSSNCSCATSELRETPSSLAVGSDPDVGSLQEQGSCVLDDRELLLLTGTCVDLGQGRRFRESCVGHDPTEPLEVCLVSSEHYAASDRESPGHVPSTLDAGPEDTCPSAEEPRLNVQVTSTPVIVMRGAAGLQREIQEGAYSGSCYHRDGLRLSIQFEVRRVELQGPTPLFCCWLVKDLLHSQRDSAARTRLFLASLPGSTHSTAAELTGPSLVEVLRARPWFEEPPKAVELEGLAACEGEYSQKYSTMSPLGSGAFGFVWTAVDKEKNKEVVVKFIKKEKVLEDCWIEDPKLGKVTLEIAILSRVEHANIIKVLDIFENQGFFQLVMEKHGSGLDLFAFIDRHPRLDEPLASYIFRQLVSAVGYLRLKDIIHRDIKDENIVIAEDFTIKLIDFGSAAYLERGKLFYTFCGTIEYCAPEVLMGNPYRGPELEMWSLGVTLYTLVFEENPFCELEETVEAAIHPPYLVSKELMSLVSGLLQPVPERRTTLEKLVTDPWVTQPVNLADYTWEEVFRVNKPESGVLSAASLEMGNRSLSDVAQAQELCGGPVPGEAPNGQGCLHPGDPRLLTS
Chain of 5-hydroxytryptamine receptor 2B (Homo sapiens) (P41595 whole entry): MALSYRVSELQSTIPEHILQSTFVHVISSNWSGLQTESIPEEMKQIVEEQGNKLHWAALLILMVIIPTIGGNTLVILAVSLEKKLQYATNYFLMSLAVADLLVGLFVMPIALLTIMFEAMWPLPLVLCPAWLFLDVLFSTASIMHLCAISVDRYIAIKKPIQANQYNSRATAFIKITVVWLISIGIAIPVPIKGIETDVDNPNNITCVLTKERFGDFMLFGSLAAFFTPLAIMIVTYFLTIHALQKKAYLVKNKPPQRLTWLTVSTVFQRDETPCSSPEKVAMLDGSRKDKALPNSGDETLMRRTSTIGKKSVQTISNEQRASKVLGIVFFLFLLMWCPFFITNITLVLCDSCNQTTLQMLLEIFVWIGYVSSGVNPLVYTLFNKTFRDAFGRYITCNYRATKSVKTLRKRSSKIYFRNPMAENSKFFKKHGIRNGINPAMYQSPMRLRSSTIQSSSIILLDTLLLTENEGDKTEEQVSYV

With C[C@@H]1C[C@H]1C(=O)N1CCN(c2cnc(C#N)c(-c3cnn(C)c3)n2)C[C@H]1C the IC50 [1] was greater than 100 µM, the IC50 [2] was greater than 100 µM and the IC50 [3] was 5.37 µM. It also gave an inhibition [4] of 1%, an inhibition [5] of 19% and an inhibition [6] of 34%. For the same molecule, the inhibition [7] was 6%, the inhibition [8] was 18% and the inhibition [9] was 19%. It also gave an IC50 [10] greater than 100 µM, an IC50 [11] greater than 100 µM and an IC50 [12] greater than 100 µM. For the same molecule, the IC50 [13] was greater than 100 µM, the IC50 [14] was greater than 100 µM and the IC50 [15] was greater than 100 µM. It also gave an IC50 [16] greater than 100 µM, an IC50 [17] greater than 100 µM and an IC50 [18] greater than 100 µM. For the same molecule, the IC50 [19] was greater than 100 µM, the IC50 [20] was greater than 100 µM and the IC50 [21] was greater than 100 µM. The IC50 [22] was greater than 100 µM, the IC50 [23] was greater than 100 µM and the IC50 [24] was greater than 100 µM. For the same molecule, the IC50 [25] was greater than 100 µM.
